Laboratory results as given in article PMC5048338, “Discovery of 4,6-disubstituted pyrimidines as potent inhibitors of the heat shock factor 1 (HSF1) stress pathway and CDK9” (Medchemcomm, 2016).
Read-outs that look alike come from different tables or passages of the source.

Key:
CDK2/cyclinE = CDK2/cyclinE (Homo sapiens, UniProt P24941); test: CDK2 enzyme assay: off-chip mobility shift assay; assay type: biochemical; parameters: purchased Upstate/Millipore; details: for IC50: biochemical, CDK2/cyclinE, average of two determinations; for fold drop in potency in the CDK2 assay / fold improvement in CDK2 inhibition: relative to compound 3
Description: CDK2 enzyme assay: Off-chip Mobility SHIFT Assay
All reagents were purchased from Sigma-Aldrich unless otherwise specified. Inhibition of CDK2/cyclinE activity was quantified using an off-chip incubation, mobility shift assay, which uses a microfluidic chip (Caliper Life Sciences) to measure the conversion of a fluorescent peptide substrate to phosphorylated product. An Off-chip Mobility Shift Chip with 12 sippers (Caliper Life Sciences) was prepared for use according to the manufacturer’s instructions using Coating Reagent #3 (Caliper Life Sciences). The off-chip incubation was carried out in white, 384-well, flat bottom, low volume assay plates (Greiner). 5 µL peptide mix (1.5 µM substrate peptide (fluorescein-QSPKKG-CONH2, Bachem) and 90 µM ATP in kinase base buffer (50 mM HEPES, pH7.5 (Calbiochem), 0.06% CHAPSO)) were added to each well of the prepared compound plates which contained 120 nL compound stock solution per well. The reaction was then initiated by the addition of 6 µL enzyme mix (1.0 nM CDK2/cyclin E (Upstate/Millipore), 1.0 mM DTT and 5.0 mM MgCl2 in kinase base buffer). After incubation for 60 min at room temperature, each reaction was terminated by the addition of 10µL of stop solution containing 100 mM HEPES pH 7.5 (Calbiochem), 0.033% Brij-35, 0.22% Coating Reagent #3 (Caliper Life Sciences), 44 mM EDTA and 5 % DMSO. Reaction products were analysed using a Caliper LabChip LC3000 instrument and peak height was used to calculate percentage conversion of substrate to product.
For compound response testing, a 12 point compound concentration range was used. Compounds were acoustically dosed (Echo 555; Labcyte) into assay-ready plates using 11 half log intervals from 100 μM to […] plus a 12th point at 0.01 μM. Each well was backfilled with the required volume up to 120 nL of 100% DMSO to ensure a final 1% v/v DMSO concentration in the assay. In addition to the compound test wells, each plate carried maximum and minimum controls. Staurosporine at 10 μM was used to inhibit CDK2 activity for the minimum control. As a maximum control, 120 nL pure DMSO was added to the wells. Each plate contained at least 11 randomly distributed maximum and minimum controls. After the addition of compounds to the assay plates, the assay was performed as detailed above. Percentage conversion of substrate to product was used to calculate the effect of each compound on the kinase activity of CDK2/cyclinE. Enzyme inhibition model 3, non-linear curve fit analysis within OriginLab™ software was used to fit dose response curves and estimate the […]
concentration of compound required to reduce the enzyme activity to 50% of the conversion calculated from an average of the maximum controls.
Cell-based ELISA (Cellisa) for HSP72 expression
To follow HSP72 protein expression, a product of HSF1 transcriptional activity, Cellisa was developed. Cells (5-8x10^4cells/ml) were seeded into 96-well plates and incubated at 37 °C for 48 h.
Compounds were then added at a range of concentrations and incubated for 1 h before addition of 17-AAG (250 nM). Cells were then incubated for 18 h. The medium was removed and cells were fixed with fixing solution (4% paraformaldehyde, 0.3% TritonX-100 in PBS) for 30 min at 4 °C. The plates were then washed with 0.1% Tween-20/deionised water before blocking with 5% milk for 30 min at 37 °C. After washing the plates, HSP72 antibody (SPA-810, Enzo Life) was added for 1.5 h at 37 °C.
Following 4 x washes, the plates were incubated with europium-labelled anti-mouse antibody (0.6ug/ml) in Delfia assay buffer (Perkin Elmer) for 1 h at 37 °C. After washing the plates, Delfia enhancement solution was added, shaken for 10 min before reading in the Envision plate reader (Perkin-Elmer) with excitation at 340 nm and emission at 615 nm. The plates were washed again before protein determination using the BCA assay. The europium counts were normalised for the amount of protein in each well. The 50% inhibitory concentration value of the compound was then calculated and presented. […]

HSF1-stress pathway = test: ArrayScan HSP72 protein assay (HSF1-stress pathway inhibition, 17-AAG induced); details: for IC50: Homo sapiens, U2OS, read-out: HSF1 IC50; for fold increase in HSF1-stress pathway inhibition / fold drop in potency in the HSF1-stress pathway assay: relative to compound 3
Description: To discover inhibitors of the HSF1-stress pathway, we employed an automated cellular imaging and analysis method (ArrayScan™) that quantifies the ability of a compound to suppress the expression of the HSF1-mediated inducible HSP70 isoform, HSP72.
U2OS cells (1500 per well) were plated in 40 μL of DMEM media (containing 10% fetal calf serum and 2 mM Glutamax T-1) in costar 384-well plates and left overnight at 37 °C and 5% CO2 to adhere.
treatment with compound, all wells except min wells were dosed with 17AAG diluted in DMSO (10
°C and 5% CO2. The following day the cells were fixed by addition of 20 μL/well of 12% formaldehyde with 1:1700 Hoechst in PBS for 10 min at room temperature. The fixative was decanted and the wells washed once with 50 μL of phosphate buffer saline (PBS).The PBS was subsequently aspirated, and the cells were permeabilized by addition of 20 μL/well of PBS 0.3% Triton X-100 for 20 min at room temperature. The wells were then washed with 80 μL of PBS prior to the addition of 20 μL of combined primary and secondary antibodies diluted in PBS (1:10 000 mouse anti-Hsp72
11001 molecular probes), for 2 h at room temperature. The wells were then washed with 50 μL of PBS. Finally, 50 μL of PBS was added to each well, and the plates were sealed ready to analyze.
Analysis was carried out using a Cellomics Arrayscan VTI instrument and the Cellomics Arrayscan Compartmental Analysis algorithm to measure cellular levels of HSP72.
100 μM to 0.1 μM plus a 12th point at 0.01 μM. Each well was backfilled with the required volume up to 120 nL of 100% DMSO to ensure a final 1% v/v DMSO concentration in the assay. In addition to the compound test wells, each plate carried maximum and minimum controls. Staurosporine at 10 μM was used to inhibit CDK2 activity for the minimum control. As a maximum control, 120 nL pure DMSO was added to the wells. Each plate contained at least 11 randomly distributed maximum and minimum controls. After the addition of compounds to the assay plates, the assay was performed as detailed above. Percentage conversion of substrate to product was used to calculate the effect of each compound on the kinase activity of CDK2/cyclinE. Enzyme inhibition model 3, non-linear curve fit analysis within OriginLab™ software was used to fit dose response curves and estimate the

CDK9/cyclin T1 = molecular target: T1, CDK9/cyclin T1 (Homo sapiens, UniProt P50750); test: EMD Millipore (Eurofins) CDK panel; assay type: biochemical; details: EMD Millipore screening panel, N = 1
T1 construct: purchased EMD Millipore screening panel (now Eurofins)
Description: Therefore 4,6-pyrimidine 3 was submitted to a EMD Millipore CDK panel to assess potency across the selected CDK family members (Table 3). Modest activity was observed against several CDKs; […]. […]. page 4: […]
(§1) mM Mg Acetate and [9-33P]-ATP (specific activity approx. 500 cpm/pmol, concentration as required). The reaction is initiated by the addition of the MgATP mix. After incubation for 40 minutes at room temperature, the reaction is stopped by the addition of 3% phosphoric acid solution. 10 μL of the reaction is then spotted onto a P30 filtermat and washed three times for 5 minutes in 75 mM phosphoric acid and once in methanol prior to drying and scintillation counting. […]
CDK9/cyclinT1 (h) is incubated with 8 mM MOPS pH 7.0, 0.2 mM EDTA, 100 μM […]
, 10 mM MgAcetate and […]
as §1, with “(specific” for “mM Mg Acetate and [9-33P]-ATP (specific”

CDK7/CyclinH/MAT1 = details: ratio between CDK2/7/9; ref Yin et al., Mol. Cancer Ther., 2014, 13, 1442-1456; cited from earlier work
CDK9/CyclinT1 [1] = details: ratio between CDK2/7/9; ref Yin et al., Mol. Cancer Ther., 2014, 13, 1442-1456; cited from earlier work
U2OS cells = test: SRB cell growth inhibition assay; assay type: cell-based; details: Homo sapiens, 96 h, read-out: SRB GI50
CDK9/CyclinT1 [2] = test: Adapta screen assay, Life Technologies; details: ratio between CDK2/7/9, below limit of assay detection
[3] = tested on: HSF1-mediated HSP72 induction; test: Cell-based ELISA (Cellisa) for HSP72 expression; details: Homo sapiens, U2OS, read-out: HSF1 IC50 (cell-ELISA, HSP72 induction inhibition)

T1 sequence (P50750 whole entry): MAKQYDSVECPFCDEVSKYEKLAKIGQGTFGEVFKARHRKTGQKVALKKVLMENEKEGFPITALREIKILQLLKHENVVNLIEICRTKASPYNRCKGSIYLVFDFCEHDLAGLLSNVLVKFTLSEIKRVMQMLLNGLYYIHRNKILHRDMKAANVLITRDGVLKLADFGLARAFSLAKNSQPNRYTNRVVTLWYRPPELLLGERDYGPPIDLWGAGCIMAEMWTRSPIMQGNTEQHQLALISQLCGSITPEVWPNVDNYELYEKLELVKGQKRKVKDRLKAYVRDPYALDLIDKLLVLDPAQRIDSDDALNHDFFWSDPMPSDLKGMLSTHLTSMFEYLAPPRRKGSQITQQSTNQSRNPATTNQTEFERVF
T1 sequence (O60563 whole entry partner): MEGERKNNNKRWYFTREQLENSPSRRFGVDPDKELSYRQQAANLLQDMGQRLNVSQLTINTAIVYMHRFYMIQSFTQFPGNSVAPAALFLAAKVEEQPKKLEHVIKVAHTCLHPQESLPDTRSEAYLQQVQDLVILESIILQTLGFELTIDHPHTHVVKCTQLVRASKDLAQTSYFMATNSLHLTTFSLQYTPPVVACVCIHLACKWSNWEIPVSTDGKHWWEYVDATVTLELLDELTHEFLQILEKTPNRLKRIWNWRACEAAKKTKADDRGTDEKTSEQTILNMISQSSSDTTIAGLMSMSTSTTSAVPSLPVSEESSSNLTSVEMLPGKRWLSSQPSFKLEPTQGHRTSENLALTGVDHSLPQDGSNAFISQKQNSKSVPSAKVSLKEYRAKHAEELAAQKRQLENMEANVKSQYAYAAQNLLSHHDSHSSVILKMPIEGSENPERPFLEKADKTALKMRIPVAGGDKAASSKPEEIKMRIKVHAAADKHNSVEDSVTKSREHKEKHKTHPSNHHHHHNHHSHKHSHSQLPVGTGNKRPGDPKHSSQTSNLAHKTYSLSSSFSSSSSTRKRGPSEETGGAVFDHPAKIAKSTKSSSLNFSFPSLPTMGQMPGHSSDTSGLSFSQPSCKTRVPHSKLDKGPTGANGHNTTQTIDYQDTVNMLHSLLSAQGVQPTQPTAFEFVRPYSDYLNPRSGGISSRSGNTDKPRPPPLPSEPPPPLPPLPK

SMILES | IC50 (CDK2/cyclinE) [nM] | IC50 (HSF1-stress pathway) [nM] | further results
C[C@H]1CN(C)CCN1c1ccc(Nc2cc(-n3cnc4ccccc43)ncn2)nc1 [Compound 22] | 836 | 1380 | –
CN(C)CCCc1ccc(Nc2cc(-n3cnc4ccccc43)ncn2)nc1 [Compound 15] | 690 | 198 | –
CC(C)c1c2cc(-c3ccnc(NC4CCC(NC5CCOCC5)CC4)n3)ccc2nn1C (stereo not drawn) [LY2857785] | – | – | ratio of activity CDK7/CyclinH/MAT1 (CDK7/CyclinH/MAT1): 22; ratio of activity CDK9/CyclinT1 (CDK9/CyclinT1 [1]): 1
Cc1nc2ccccc2n1-c1cc(Nc2ccc(OCCN(C)C)cn2)ncn1 [Compound 13] | 4610 | 4280 | fold drop in potency in the CDK2 assay (CDK2/cyclinE): > 7 fold; fold drop in potency in the HSF1-stress pathway assay (HSF1-stress pathway): > 7 fold
CN(C)CCOc1ccc(Nc2cc(-c3cnc4ccccc4c3)ncn2)nc1 [Compound 9] | > 100000 | 17600 | activity in the CDK2 assay (CDK2/cyclinE; compared to benzimidazole 3): inactive; fold drop in potency in the HSF1-stress pathway assay (HSF1-stress pathway): ~200 fold
CN1CCC[C@@H]1COc1ccc(Nc2cc(-n3cnc4ccccc43)ncn2)nc1 [Compound 17] | 492 | – | IC50 (CDK9/cyclin T1): 8 nM
CN(C)CCOc1ccc(Nc2cc(-n3ccc4ccccc43)ncn2)nc1 [Compound 8] | 4430 | 2330 | –
CN(C)CCOc1ccc(Nc2cc(-n3cnc4cccnc43)ncn2)nc1 [Compound 10] | 1600 | 760 | –
CN(C)CCOc1ccc(Nc2cc(-n3cnc4ccccc43)ncn2)cc1 [Compound 2] | 20000 | 1350 | fold difference in activity between the CDK2 and HSF1-stress pathway assays (HSF1-stress pathway; CDK2 IC50 versus HSF1 IC50): 15 fold
CN(C)CCOc1ccc(Nc2cc(-n3ncc4ccccc43)ncn2)nc1 [Compound 7] | 29800 | > 30000 | –
CN(C)C1CCN(c2ccc(Nc3cc(-n4cnc5ccccc54)ncn3)nc2)CC1 [Compound 23] | 776 | 610 | –
CN1CCC(Oc2ccc(Nc3cc(-n4cnc5ccccc54)ncn3)nc2)CC1 [Compound 20] | 1240 | 884 | –
CC(C)(C)c1cnc(CSc2cnc(NC(=O)C3CCNCC3)s2)o1 [SNS-032, reference compound] | – | – | GI50 (U2OS cells; U2OS): 370 nM; IC50 [3]: 750 nM
OCCc1ccc(Nc2cc(-n3cnc4ccccc43)ncn2)cc1 [Compound 1] | 1140 | 2000 | –
CN(C)CCOc1ccc(Nc2cc(-n3ccnc3)ncn2)nc1 [Compound 6] | 7100 | 6150 | IC50 (CDK9/cyclin T1): 88 nM; fold drop in potency in the CDK2 assay (CDK2/cyclinE): 12 fold; fold drop in potency in the HSF1-stress pathway assay (HSF1-stress pathway): 77 fold

More lines, in order of falling IC50 (CDK2/cyclinE), values ahead:

IC50 (CDK2/cyclinE) [nM] | IC50 (HSF1-stress pathway) [nM] | SMILES | further results
643 | 450 | CN1CCN(c2ccc(Nc3cc(-n4cnc5ccccc54)ncn3)nc2)CC1 [Compound 21] | IC50 (CDK9/cyclin T1): 22 nM
554 | 295 | c1ccc2c(c1)ncn2-c1cc(Nc2ccc(OCCN3CCOCC3)cn2)ncn1 [Compound 18] | –
535 | – | CN1CCC[C@H]1COc1ccc(Nc2cc(-n3cnc4ccccc43)ncn2)nc1 [Compound 16] | –
368 | 165 | CN(C)CCCOc1ccc(Nc2cc(-n3cnc4ccccc43)ncn2)nc1 [Compound 4] | –
358 | 57 | c1ccc2c(c1)ncn2-c1cc(Nc2ccc(OCCN3CCCCC3)cn2)ncn1 [Compound 19] | IC50 (CDK9/cyclin T1): 8 nM; fold increase in HSF1-stress pathway inhibition (HSF1-stress pathway): 2 fold
161 | 28 | CN(C)CCOc1ccc(Nc2cc(-n3cnc4ncccc43)ncn2)nc1 [Compound 11] | fold improvement in CDK2 inhibition (CDK2/cyclinE): 5 fold; fold increase in HSF1-stress pathway inhibition (HSF1-stress pathway): 3 fold
146 | – | CN1CCC[C@H]1COc1ccc(Nc2cc(-n3cnc4ncccc43)ncn2)nc1 [Compound 24] | –
121 | 39 | Cc1ccc2ncn(-c3cc(Nc4ccc(OCCN(C)C)cn4)ncn3)c2c1 [Compound 12] | –
59 | 842 | c1ccc(Nc2cc(-n3cnc4ccccc43)ncn2)nc1 [Compound 14] | fold improvement in CDK2 inhibition (CDK2/cyclinE): 10 fold; fold drop in potency in the HSF1-stress pathway assay (HSF1-stress pathway): 10 fold
55 | 15 | c1cnc2ncn(-c3cc(Nc4ccc(OCCN5CCCCC5)cn4)ncn3)c2c1 [Compound 25] | GI50 (U2OS cells; U2OS cells, single agent, average of two determinations): 5 nM; ratio of activity CDK9/CyclinT1 (CDK9/CyclinT1 [2]): 1; IC50 [3]: 15 nM
